Measured values published in patent US7390870B2, “Immune-enhancing peptides” (Posco, priority 2001, dated 2008).
No end group written: not given here.

Assays:
[1] = tested on: PC12 (rat adrenal pheochromocytoma); test: [Ca2+]i rise in PC12 cells (fura-2); type: cell-based; settings: FIG. 4A; 20 μM peptide
Method: (§1) The level of [Ca^2+]i was determined by Grynkiewicz's method using fura-2/AM (21). Briefly, prepared cells were incubated with 3 μM fura-2/AM at 37° C. for 50 minutes in a fresh serum-free RPMI 1640 medium under continuous stirring. 2×10^6 cells were aliquoted for each assay in Ca^2+-free Locke's solution (154 mM NaCl, 5.6 mM KCl1.2 mM MgCl2, 5 mM HEPES, pH 7.3, 10 mM glucose, and 0.2 mM EGTA). The fluorescence changes at the dual excitation wavelengths of 340 nm and 380 nm and the emission wavelength of 500 nm were measured, and the calibrated fluorescence ratio was translated into [Ca^2+]i.
From the fact that HFYLPM, MFYLPM, and HFYLPm stimulate human monocytes, effects of the peptides on other leukocytes such as neutrophils were evaluated. Prepared human primary monocytes, neutrophils, cultured HL60, Jurkat, U937, NIH3T3, 3Y1, 3T3L1, and PC12 cells were loaded with fura-2 and stimulated with effective concentrations of the three peptides (1 μM for monocyte and neutrophil; 10 μM for HL60 and Jurkat; 20 μM for U937, NIH3T3, 3Y1, 3T3L1, and PC12). The peak level of the [Ca^2+]i increase was recorded and superoxide generation was measured using cytochrome c reduction assay. The results are shown FIG. 4. The data of FIG. 4 are presented as means ±S.E. from at least three independent experiments.

[2] = tested on: HL60 human promyelocytic cells; test: [Ca2+]i increase in undifferentiated HL60 cells (fura-2); type: cell-based
Method: as §1
(§2) From the fact that HFYLPM, MFYLPM, and HFYLPm stimulate human monocytes, effects of the peptides on other leukocytes such as neutrophils were evaluated. […] The peak level of the [Ca^2+]i increase was recorded and superoxide generation was measured using cytochrome c reduction assay. […]
A test where the three peptides on HL60 cells that had differentiated into granulocytes after having been cultured in the presence of 1.25% DMSO for 4 days was performed. […] The peak level of the [Ca^2+]i increase was recorded. […]

human neutrophils = test: Superoxide generation by human neutrophils (cytochrome c reduction assay); type: cell-based; settings: FIG. 4B; 10 μM of each peptide
Method: For initial screening of the PS-SPCLs, the superoxide anion generation of each peptide pool was evaluated by measuring reduction of cytochrome c using a microtiter 96 well plate ELISA reader (Bio-Tekinstruments, EL312e, Winooski, Vt.) as described (20). The cytochrome c was purchased from Sigma (St. Louis, Mo.). The human monocytes (9×10^5 cells/100 □ of RPMI 1640 medium per well of a 96-well plate) were preincubated with 50 μM cytochrome c at 37° C. for 1 minute and then incubated with the indicated concentrations of peptide pools (final 0.5 nM per peptide sequence for the initial screening). The superoxide generation was measured as change in light absorption at 550 nm over 5 minutes at 1 minute intervals. From at least four independent experiments, peptides with active amino acids at each position were chosen. Superoxide generation by the identified peptides was measured by the same method. Spurious reduction of cytochrome c was ruled out by checking that the peptides-induced ones were superoxide dismutase-inhibitable in all experiments.
as §2

human monocytes = test: [Ca2+]i rise in human monocytes (fura-2/AM); type: cell-based
Method: as §1
Many extracellular agonists that stimulate superoxide generation in human phagocytic cells involve intracellular calcium rise (23). In this example, the effect of the peptides on the [Ca^2+]i of monocytes were tested. The results are shown FIG. 3. The data of FIG. 3 are presented as means ±S.E. of four independent experiments. *P<0.01 versus vehicle treatment.
Fura-2-loaded monocytes were stimulated with an effective concentration of HFYLPM (1 μM), MFYLPM (1 μM), HFYLPm (100 nM), and LFMYHP (10 μM). The change in 340 nm/380 nm was monitored. The cells were stimulated with various concentrations of each peptide. The peak level of the increase in [Ca^2+]i was monitored. […] The results of A of FIG. 3 are representative of 6 independent experiments. […]

[3] = tested on: fura-2-loaded differentiated HL60 cells; test: Cross-desensitization of [Ca2+]i increase between fMLF and the peptides; type: cell-based, human; settings: HFYLPm 1 μM, HFYLPM and MFYLPM 10 μM
Method: as §1
Among various agonists, fMLF is known to cause superoxide production and [Ca^2+]i increase in phagocytic cells by binding to its specific receptor (7). To check whether the novel peptides can cross-desensitize the signaling by fMLF, the effect of fMLF on the novel peptides-induced [Ca^2+]i increase and vice versa was examined. […] The results of FIG. 6 shown are from one experiment that is representative of at least three independent experiments.
In FIG. 6, “Hm” means HFYLPm, “HM” means HFYLPM, and “MM” means MFYLPM. The concentrations used were 1 μM (HFYLPm and fMLF) and 10 μM (HFYLPM and MFYLPM). 340 nm/380 mn ratios in fluorescence were monitored on fura-2-loaded differentiated HL60 cells before and during sequential addition of agonists at the times indicated by the arrows.

“Met-Phe-Tyr-Leu-Pro-Met-CONH2 (MFYLPM-NH2)” was tested. Which “[Ca2+]i rise in PC12 cells” value [1] did it give?
The value was “no response”.

And the “[Ca2+]i increase in HL60 cells” value ([2]; FIG. 4A, HFYLPM up to 20 μM)?
The value was “caused a [Ca^2+]i increase”.

What about the “[Ca2+]i rise in undifferentiated HL60 cells” value ([2]; FIG. 5, various concentrations) of the same substance?
The value was “stimulated both undifferentiated and differentiated HL60 cells”.

And the “superoxide generation by neutrophils” value (human neutrophils)?
The value was “generate superoxides”.

And the “effect on [Ca2+]i in monocytes” value (human monocytes; FIG. 3A, HFYLPM 1 μM, MFYLPM 1 μM, HFYLPm 100 nM, LFMYHP 10 μM)?
The value was “caused intracellular Ca mobilization”.

And the “concentration of maximal [Ca2+]i increase” value (human monocytes; FIG. 3B)?
Its value is 1 µM.

And the “desensitization to subsequent stimulation with the same peptide ([Ca2+]i)” value ([3]; FIG. 6)?
The value was “complete desensitization”.

What about the “block of the calcium response to a following saturating concentration of fMLF” value ([3]; FIG. 6 below, fMLF 1 μM) of the same substance?
Its value is “completely block”.

And the “[Ca2+]i response to the peptide following a saturating concentration of fMLF” value ([3]; FIG. 6 upper, fMLF 1 μM)?
Its value is “considerable responses”.
